Experimental data reported in US9084770B2, “Modulation of insulin like growth factor I receptor expression in cancer” (Antisense Therapeutics, Ltd., priority 2008, dated 2015).
Marks after values point to notes of the source that are not given here.

Columns and labels:
[1] = test system: Cyclin D1, Cyclin E, p-RB, p27; experiment: Cell cycle proteins in LNCaP and PC-3 cells, immunoblot; type: cell-based, human
Method: (§1) The Effect of IGF-IR silencing with IGF-IR antisense oligonucleotide (ATL1101) on LNCaP and PC3 cell apoptosis and cell cycle is shown in FIGS. 4A(i)-(ii), 4B, 4C(i)-(ii), and Table 2. Cells were transfected with indicated concentrations of ATL1101, control oligodeoxynucleotide or oligofectamine as in FIGS. 1A(i)-1B(ii). Two days after treatment, cell cycle analysis was determined by flow cytometry using propidium iodide staining. […] In FIGS. 4C(i)-(ii), LNCaP (FIG. 4C (i)) or PC-3 (FIG. 4C (ii)) cells were transfected with indicated concentration of ATL1101 or control oligodeoxynucleotide (ISIS 306064) for two days. Cells were then cultured in FBS media for one day and in serum-free media for one day. Whole cell lysates (30 μg) were subjected to SDS-PAGE and immunoblotted to assess Cyclin D1, Cyclin E, p-RB, total Rb, and p27 protein levels. Oligo, oligofectamine treated cells only.

IGF-IR mRNA [2] = experiment: IGF-IR mRNA expression in transfected LNCaP and PC-3 cells, quantitative RT-PCR; type: cell-based, human; details: one day after treatment
Method: (§2) Established methods were used to test the activity of IGF-IR antisense oligonucleotide on LNCaP and PC-3 cell growth (crystal violet assay) and apoptosis (FACS). Dose- and sequence-specific suppression of IGF-IR mRNA and protein expression in ATL1101-treated LNCaP and PC3 PC cell lines in vitro were observed by QT-PCR and western blotting. Effects of the IGF-IR antisense oligonucleotide on various putative targets, including IGF-IR and downstream targets were evaluated using western blotting.
FIGS. 1A(i)-1A(ii) show the sequence-specific and dose-dependent suppression of IGF-IR mRNA expression levels by ATL1101 in LNCaP (FIG. 1A (i)) and PC-3 (FIG. 1A (ii)) cells. […] One day after treatment, total RNA was extracted, and IGF-IR mRNA expression was analyzed by quantitative RT-PCR. IGF-IR mRNA levels were normalized to levels of GAPDH mRNA and expressed here as mean±SE. ***, p<0.001 differ from control (oligofectamine only) by Student's t test. “Control” cells were treated with oligofectamine only. In LNCaP cells, IGF-IR expression was >70% suppressed by 10 nM ATL1101 and >90% at 200 nM ATL1101. In PC3 cells, IGF-IR expression was suppressed ˜40% at 10 nM ATL1101, >50% at 50 nM ATL1101 and ˜80% at 200 nM. Control oligodeoxynucleotide (ISIS 306064) did suppress IGF-IR mRNA expression but by less than 25% at maximal doses tested

IGF-IR mRNA [3] = details: other cell lines, dose-dependent and sequence specific; cited from earlier work
PC3 cells = experiment: PC3 cell cycle and apoptosis, flow cytometry with propidium iodide; type: cell-based, human; details: PC3, FBS condition, 200 nM
Method: as §2, §1

[4] = test system: IGF-IR protein (IGF-IRB subunit); experiment: IGF-IR protein in transfected LNCaP and PC3 cells, immunoblot; type: cell-based, human
Method: as §2
FIGS. 1B(i)-1B(ii) show sequence-specific and dose-dependent inhibition of IGF-IR protein by IGF-IR antisense oligonucleotide in LNCaP (FIG. 1B (i)) and PC-3 (FIG. […]) cells. […] Two days after the second transfection, whole cell detergent lysates were prepared and 30 μg of total protein was subjected to SDS-PAGE and immunoblotted for IGF-IRB subunit, IR-BB subunit and vinculin expression. Oligofectamine, oligofectamine treated cells only. In LNCaP cells, IGF-IR expression was >80% suppressed by 10 nM ATL1101 and was undetectable at 100 nM ATL1101. In PC3 cells, IGF-IR expression was suppressed ˜50% at 10 nM ATL1101, >80% at 50 nM ATL1101 and >90% at 200 nM. […] Vinculin expression is shown as a loading control.

LNCaP cells = experiment: LNCaP cell viability, crystal violet assay; type: cell-based, human
Method: as §2
Cells were transfected with indicated concentrations of ATL1101, control oligodeoxynucleotides or oligofectamine as in FIGS. 1A(i)-1A(ii). Three days after treatment, cell viability was determined by crystal violet assay. Viable cell density was normalized to that of cells treated with oligofectamine. Points, means of triplicate analysis; bars, SE. *, p<0.05 differs from control oligodeoxynucleotide treatment group. **, p<0.01 differs from control oligodeoxynucleotide treatment group by Student's t test.

IGF-IRβ subunit protein = IGF-IRβ subunit protein in PC3 Ptx-R cells; type: cell-based, human; details: 10 to 200 nM, compared to oligofectamine transfection reagent
Description: The PC3 Ptx-R cells retain sensitivity to ATL1101-induced IGF-IR down regulation at the mRNA and protein level as shown in FIGS. 11A-C. […] ATL1101 and the control oligodeoxynucleotide ISIS 306064 had no effect on either of the alternative spliced isoform transcripts of the insulin receptor, IR-A, IR-B or IR-β protein or vinculin protein levels.

IGF-IRB subunit = experiment: IGF-IRB immunoblot in PC3 cells with or without Paclitaxel; type: cell-based, human; details: 50 nM, with or without 1 nM Paclitaxel
Description: Vinculin expression is shown as a loading control.

cgaaggaaacaatactccga (CGAAGGAAACAATACTCCGA; 2'-MOE modified, pattern not given here) [ISIS 175317, 2′-MOE-modified IGF-IR antisense oligonucleotide, also known as ATL1101]
activation of Cyclin D1, Cyclin E, p-RB [1]: suppressed | p27 protein production [1]: increased | suppression of IGF-IR mRNA expression (IGF-IR mRNA [2]; LNCaP cells, 10 nM): > 70% | suppression of IGF-IR mRNA expression (IGF-IR mRNA [2]; LNCaP cells, 200 nM): > 90% | suppression of IGF-IR mRNA expression (IGF-IR mRNA [2]; PC3 cells, 10 nM): ~40% | suppression of IGF-IR mRNA expression (IGF-IR mRNA [2]; PC3 cells, 50 nM): > 50% | suppression of IGF-IR mRNA expression (IGF-IR mRNA [2]; PC3 cells, 200 nM): ~80% | inhibition of IGF-IR mRNA expression (IGF-IR mRNA [3]): significantly inhibit | % of total cells, G0/G1 (PC3 cells): 19.3% | % of total cells, G2/M (PC3 cells): 8.4% | % of total cells, S (PC3 cells): 9.8% | % of total cells, Sub G0/G1 (PC3 cells): 62.5% | subG0/G1 + G0/G1:S + G2/M (PC3 cells): 4.5** | suppression of IGF-IR protein expression ([4]; LNCaP cells, 10 nM, two days after second transfection): > 80% | IGF-IR protein expression ([4]; LNCaP cells, 100 nM): undetectable | suppression of IGF-IR protein expression ([4]; PC3 cells, 10 nM): ~50% | suppression of IGF-IR protein expression ([4]; PC3 cells, 50 nM): > 80% | suppression of IGF-IR protein expression ([4]; PC3 cells, 200 nM): > 90% | maximum reduction of cell viability relative to control (LNCaP cells; FBS media, achieved by 100 nM, three days after treatment): ~60% | suppression of cell viability (LNCaP cells; androgen-deprived conditions (CSS), 25 nM): 60% | IGF-IRβ subunit protein levels (IGF-IRβ subunit protein): specifically reduced | IGF-IRB levels (IGF-IRB subunit): specifically reduced
